In PubChem BioAssay AID328 (DTP/NCI, 2004):
Values joined by “and” are separate entries in the source; they are usually repeats but may differ in a detail not shown here. Equal entries are not always repeated. Inconclusive results and toxic doses are left out. The calls were made as follows: active = survival T/C of 150% or more; inactive = T/C below 125% in these data.

Tested on: BDF1 mice, P388 leukemia ip, median survival T/C
Experiment: NCI In Vivo Anticancer Drug Screen. Data for tumor model P388 Leukemia (intraperitoneal) in B6D2F1 (BDF1) mice
Conditions: endpoint: median survival time, higher = longer survival
Summary of the method: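 T/C = treated-group survival ÷ vehicle-control survival; tumour transplanted into mice before dosing.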

[1] = dose: 50.0 mg/kg/injection, schedule: Q01DX009 (ip), vehicle: saline with Tween-80
[2] = dose: 100.0 mg/kg/injection, schedule: Q04DX003 (ip), vehicle: saline with Tween-80
[3] = dose: 200.0 mg/kg/injection, schedule: Q04DX003 (ip), vehicle: saline with Tween-80
[4] = dose: 400.0 mg/kg/injection, schedule: Q04DX003 (ip), vehicle: saline with Tween-80
[5] = dose: 50.0 mg/kg/injection, schedule: Q04DX003 (ip), vehicle: saline with Tween-80
[6] = dose: 100.0 mg/kg/injection, schedule: Q01DX009 (ip), vehicle: Klucel (hydroxypropylcellulose) (HPC)
[7] = dose: 100.0 mg/kg/injection, schedule: Q04DX003 (ip), vehicle: Klucel (hydroxypropylcellulose) (HPC)
[8] = dose: 200.0 mg/kg/injection, schedule: Q01DX009 (ip), vehicle: Klucel (hydroxypropylcellulose) (HPC)
[9] = dose: 200.0 mg/kg/injection, schedule: Q04DX003 (ip), vehicle: Klucel (hydroxypropylcellulose) (HPC)
[10] = dose: 400.0 mg/kg/injection, schedule: Q01DX009 (ip), vehicle: Klucel (hydroxypropylcellulose) (HPC)
[11] = dose: 400.0 mg/kg/injection, schedule: Q04DX003 (ip), vehicle: Klucel (hydroxypropylcellulose) (HPC)
[12] = dose: 12.5 mg/kg/injection, schedule: Q01DX009 (ip), vehicle: Klucel (hydroxypropylcellulose) (HPC)
[13] = dose: 100.0 mg/kg/injection, schedule: Q01DX009 (ip), vehicle: saline with Tween-80
[14] = dose: 25.0 mg/kg/injection, schedule: Q04DX003 (ip), vehicle: saline with Tween-80

Measured: T/C

C1=CN(c2ccc(/C=C\c3ccnc4ccccc34)cc2)C=CN1c1ccc(/C=C\c2ccnc3ccccc23)cc1
inactive: [1] 119 % of control

OCCN(CCO)c1cc(O)cc(O)c1
inactive: [2] 106 % of control | [3] 120 % of control | [4] 117 % of control

CCCCCCCCOc1cc(OCCCCCCCC)c2c(ccc3ccccc32)c1
inactive: [2] 97 % of control | [3] 88 % of control | [4] 94 % of control

CN1C(=O)NC(C)(c2cccs2)C1=O (stereo not given)
inactive: [5] 96 % of control | [2] 101 % of control | [3] 100 % of control | [4] 94 % of control

COc1ccc(/C=C(\CC(=O)O)C(=O)O)cc1OC
inactive: [6] 100 % of control | [7] 100 % of control | [8] 109 % of control | [9] 100 % of control | [10] 95 % of control | [11] 90 % of control

COC(=O)[C@]1(C)CCC[C@]2(C)[C@H]3CC4OO[C@@]3(CC[C@H]21)[C@H]1O[C@@]41C(C)C
inactive: dose: 100.0 mg/kg/injection, schedule: Q01DX009 (ip), vehicle: other 120 % of control | dose: 100.0 mg/kg/injection, schedule: Q04DX003 (ip), vehicle: other 113 % of control | dose: 132.0 mg/kg/injection, schedule: Q01DX009 (ip), vehicle: other 100 % of control | dose: 200.0 mg/kg/injection, schedule: Q01DX009 (ip), vehicle: other 87 % of control | dose: 200.0 mg/kg/injection, schedule: Q04DX003 (ip), vehicle: other 118 % of control | dose: 400.0 mg/kg/injection, schedule: Q04DX003 (ip), vehicle: other 104 % of control

CCC(C)n1ncc2c(N(C)C)ncnc21 (stereo not given)
inactive: [12] 100 % of control | dose: 50.0 mg/kg/injection, schedule: Q01DX009 (ip), vehicle: Klucel (hydroxypropylcellulose) (HPC) 92 % of control and 95 % of control | [7] 95 % of control | [9] 120 % of control

N=C(N)c1nn(C2OC(CO)C(O)C2O)c2ncnc(N)c12 (stereo not given)
inactive: dose: 10.0 mg/kg/injection, schedule: Q01DX009 (ip), vehicle: saline 114 % of control and 117 % of control | dose: 10.0 mg/kg/injection, schedule: Q04DX003 (ip), vehicle: saline 109 % of control and 118 % of control | dose: 20.0 mg/kg/injection, schedule: Q01DX009 (ip), vehicle: saline 117 % of control and 124 % of control | dose: 20.0 mg/kg/injection, schedule: Q04DX003 (ip), vehicle: saline 122 % of control | dose: 40.0 mg/kg/injection, schedule: Q04DX003 (ip), vehicle: saline 104 % of control | dose: 80.0 mg/kg/injection, schedule: Q04DX003 (ip), vehicle: saline 95 % of control

CC(C)CCCC(=O)CCCCCCC(=O)CCN(O)C(=O)C(N)CO (stereo not given)
inactive: dose: 6.25 mg/kg/injection, schedule: Q01DX009 (ip), vehicle: Klucel (hydroxypropylcellulose) (HPC) 98 % of control | [12] 94 % of control | dose: 25.0 mg/kg/injection, schedule: Q01DX009 (ip), vehicle: Klucel (hydroxypropylcellulose) (HPC) 94 % of control

CC(=O)C(C(c1ccccc1)C1CCCc2ccccc21)N1CCOCC1 (stereo not given)
inactive: [6] 100 % of control | [7] 105 % of control | [8] 109 % of control | [9] 100 % of control | [10] 104 % of control | [11] 100 % of control

Cc1ccc(C)c(NC(=O)c2cccc(Cl)c2)c1
inactive: [2] 104 % of control | [3] 100 % of control | [4] 104 % of control

COc1cccc(OC)c1C1(O)c2c(OC)cccc2Oc2cccc(OC)c21
inactive: dose: 100.0 mg/kg/injection, schedule: Q01DX001 (ip), vehicle: Klucel (hydroxypropylcellulose) (HPC) 95 % of control | dose: 200.0 mg/kg/injection, schedule: Q01DX001 (ip), vehicle: Klucel (hydroxypropylcellulose) (HPC) 100 % of control | dose: 400.0 mg/kg/injection, schedule: Q01DX001 (ip), vehicle: Klucel (hydroxypropylcellulose) (HPC) 104 % of control

O=C1c2ccccc2C(=O)N1CNc1ncccn1
inactive: dose: 6.25 mg/kg/injection, schedule: Q01DX005 (ip), vehicle: saline with Tween-80 95 % of control | dose: 12.5 mg/kg/injection, schedule: Q01DX005 (ip), vehicle: saline with Tween-80 98 % of control | dose: 25.0 mg/kg/injection, schedule: Q01DX005 (ip), vehicle: saline with Tween-80 90 % of control | dose: 100.0 mg/kg/injection, schedule: Q01DX005 (ip), vehicle: saline with Tween-80 108 % of control | dose: 200.0 mg/kg/injection, schedule: Q01DX005 (ip), vehicle: saline with Tween-80 105 % of control

CCOC(=O)CNC(c1ccccc1)(c1ccccc1)c1ccccc1
inactive: [6] 95 % of control | [7] 109 % of control | [8] 91 % of control | [9] 113 % of control | [10] 108 % of control | [11] 104 % of control

CCNC(=O)c1cc2cccc(OC)c2oc1=N
inactive: dose: 200.0 mg/kg/injection, schedule: Q01DX009 (ip), vehicle: saline 86 % of control

O=C1OC(=O)C2C1C(c1ccc([N+](=O)[O-])cc1)N1C3C(=O)OC(=O)C3C(c3ccc([N+](=O)[O-])cc3)N21 (stereo not given)
inactive: [1] 97 % of control | [13] 99 % of control | dose: 200.0 mg/kg/injection, schedule: Q01DX009 (ip), vehicle: saline with Tween-80 92 % of control

CCCCOc1cc(C(=O)O)ccc1[N+](=O)[O-]
inactive: [14] 100 % of control | [5] 100 % of control | [2] 104 % of control

COC[C@H]1OC(=O)c2coc3c2[C@@]1(C)C1=C(C3=O)[C@@H]2CCC(=O)[C@@]2(C)C[C@H]1OC(C)=O
inactive: dose: 0.16 mg/kg/injection, schedule: Q01DX009 (ip), vehicle: saline 108 % of control | dose: 0.31 mg/kg/injection, schedule: Q01DX009 (ip), vehicle: saline 115 % of control | dose: 0.63 mg/kg/injection, schedule: Q01DX009 (ip), vehicle: saline 116 % of control | dose: 2.5 mg/kg/injection, schedule: Q01DX009 (ip), vehicle: saline 117 % of control

CCNC(C)(C)C(O)c1ccc(Cl)s1 (stereo not given)
inactive: dose: 25.0 mg/kg/injection, schedule: Q01DX009 (ip), vehicle: saline with Tween-80 105 % of control | [14] 102 % of control | [1] 88 % of control | [5] 100 % of control | [13] 88 % of control | [2] 86 % of control and 101 % of control | [3] 88 % of control and 104 % of control | [4] 92 % of control

CC[CH2][Pb]([Cl])([CH2]CC)[CH2]CC
inactive: dose: 0.18 mg/kg/injection, schedule: Q01DX009 (ip), vehicle: DMSO 87 % of control | dose: 0.37 mg/kg/injection, schedule: Q01DX009 (ip), vehicle: DMSO 109 % of control | dose: 0.75 mg/kg/injection, schedule: Q01DX009 (ip), vehicle: DMSO 102 % of control

NC(=S)c1c(N)n(C2OC(CO)C(O)C2O)c2ncnc(N)c12 (stereo not given)
inactive: dose: 12.5 mg/kg/injection, schedule: Q04DX003 (ip), vehicle: saline 114 % of control | dose: 25.0 mg/kg/injection, schedule: Q04DX003 (ip), vehicle: saline 112 % of control

O=P(Oc1cccc2ccccc12)(N1CC1)N1CC1
inactive: [2] 122 % of control
active: [13] 181 % of control | dose: 150.0 mg/kg/injection, schedule: Q01DX009 (ip), vehicle: saline with Tween-80 231 % of control | [3] 150 % of control | dose: 264.0 mg/kg/injection, schedule: Q04DX003 (ip), vehicle: saline with Tween-80 200 % of control | [4] 181 % of control and 220 % of control

CC(C)CCOC(=O)Cc1ccccc1
inactive: [6] 100 % of control | [7] 90 % of control | [8] 115 % of control | [9] 113 % of control | [10] 115 % of control | [11] 118 % of control
